Patent US20240165196A1, “Beta-Lactamase Inhibitors” (VIB VZW, priority 2021, published 2024)
In brackets after ≈: the same amount, converted by molar mass. Peptide text beside a SMILES is read from it.

Key:
Format in all cases: cell-based
[1] = test system: E. coli NDM ? a; assay: antimicrobial susceptibility testing, VITEK 2 AST Cards; for Interpretation: key: S, susceptible; I, intermediate; R, resistant
Protocol: (§1) Beta-lactamase clinical samples were collected from University Hospitals Leuven and tested for ESBL production using the disk diffusion method^61. The beta-lactamase reference isolates were purchased from IHMA International Health management associates. Bacterial strains were cultivated in Mueller Hinton Broth (MHB, Difco) at 37° C. Whenever required growth media were supplemented with appropriate antibiotic to the medium or plates (kanamycin 30 μg/mL, L-arabinose 0.5 mg/mL, and IPTG 1 mM/mL). Escherichia coli BL21 (Thermo Fisher Scientific, Belgium) was used for cloning and plasmid amplification. For selection of antibiotic resistance colonies, E. coli carrying plasmids was grown in LB agar plates supplemented with the relevant antibiotic. Bacterial CFU counting was done on blood agar plates (BD Biosciences, Belgium) or MHA agar plates. Species identification and antibiograms for all clinical isolates were performed using MALDI-Tof and VITEK® 2 automated system (BioMérieux, France).

[2] = test system: E. coli SH ? (APHA); assay: as above
Protocol: as §1

[3] = test system: E. coli TEM-206; assay: as above; for Interpretation: key: S, susceptible; I, intermediate; R, resistant
Protocol: as §1

[4] = test system: E. coli NDM ? b; assay: as above
Protocol: as §1

[5] = test system: E. coli TEM-148; for Interpretation: key: S, susceptible; I, intermediate; R, resistant
Protocol: as §1

[6] = test system: E. coli TEM-104; for Interpretation: key: S, susceptible; I, intermediate; R, resistant
Protocol: as §1

[7] = test system: E. coli TEM-30; for Interpretation: key: S, susceptible; I, intermediate; R, resistant
Protocol: as §1

[8] = test system: E. coli TEM-1 ?
Protocol: as §1

[9] = test system: E. coli strain UZ_TEM104; conditions: in presence of additive at 50 μg/mL
[10] = test system: E. coli strain UZ_TEM104; conditions: peptide alone
From the text: In order to generate a synthetic amyloid peptide capable of inactivating the TEM-1 beta-lactamase enzyme by capitalizing on its aggregation propensity, we applied a previously developed design pattern for synthetic aggregating sequences. This involves a tandem repeat of the APR, each instance flanked by charged amino acids for solubility and separated by a short peptide linker^19,20,23 (FIG. 2G). Previous work has shown that good bacterial uptake can be achieved using one positively charged arginine residue on the N-terminal side of each APR in the tandem and two arginine residues on the C-terminal side. This has the additional benefit of reducing the self-aggregation of the peptides and increasing their solubility prior to target engagement. As before, we employed a single Pro residue as a linker between the APRs and focused on an APR length of seven, extending shorter APRs to this length by incorporating flanking amino acids unless they were obvious aggregation breakers (Arg, Lys, Asp, Glu or Pro, see Table 1). We obtained these peptides from solid phase synthesis, followed by HPLC purification to a purity judged by reverse phase chromatography of at least 90% (Genscript).
Determination of MIC values using the broth microdilution in the 96-well plate (BD Biosciences, Belgium) according to the EUCAST guideline, which was performed in 96-well polystyrene flat bottom microtiter plates (BD Biosciences). Briefly, a single colony was inoculated into 5 mL Difco™ Mueller Hinton Broth (BD Biosciences Ref 275730) and grown to the end-exponential growth phase in a shaking incubator at 37° C. Cultures were subsequently diluted to an MacFarland (0.5 optical density) then the culture was diluted to reach 10^6 CFU/mL in fresh MHB medium. 50 μl of different concentration of peptides ranging from 128 to 2 μg/mL were serially diluted to the sterile 96-well plate in MHB. 50 μL of the diluted bacteria in MHB were pipetted into 96-well plates to reach the final volume of 100 μL. The bacteria grown with the maximum concentration of carrier and medium were considered as positive and negative controls, respectively. The plates were statically incubated overnight at 37° C. to allow bacterial growth. OD was measured at 590 nm a multipurpose ultraviolet-visible plate reader, and the absorbance of the growth bacteria was measured using absorbance reader. Bacterial growth was also visually inspected and agreed well with the OD reading.
Throughout, for Interpretation: key: S, susceptible; I, intermediate; R, resistant.

Row | Molecule | Interpretation [1] | MIC [1] [mg/L] | Interpretation [2] | Interpretation [3] | MIC [3] [mg/L] | Interpretation [4] | MIC [4] [mg/L] | Interpretation [5] | MIC [5] [mg/L] | Interpretation [6] | MIC [6] [mg/L] | Interpretation [7] | MIC [7] [mg/L] | Interpretation [8] | MIC [8] [mg/L] | MIC [2] [mg/L] | MIC penicillin [9] [mg/L] | MIC peptide [10] [mg/L]
1 | CO/N=C(\C(=O)N[C@@H]1C(=O)N2C(C(=O)OC(C)OC(C)=O)=C(COC(N)=O)CS[C@H]12)c1ccco1 (some centres unmarked) | R | ≥ 64 | R | R | ≥ 64 | R | ≥ 64 | R | ≥ 64 | S | 4 (≈ 7.84 µM) | R | ≥ 64 | R | ≥ 64 |  |  | 
2 | NCC[C@H](O)C(=O)N[C@@H]1C[C@H](N)[C@@H](O[C@H]2O[C@H](CN)[C@@H](O)[C@H](O)[C@H]2O)[C@H](O)[C@H]1O[C@H]1O[C@H](CO)[C@@H](O)[C@H](N)[C@H]1O [Amikacin] | S |  | S | S | ≤ 2 | S |  | S | ≤ 2 | S | ≤ 2 |  |  | S | ≤ 2 |  |  | 
3 | CC(C)(O/N=C(\C(=O)N[C@@H]1C(=O)N2C(C(=O)[O-])=C(C[n+]3ccccc3)CS[C@H]12)c1csc(N)n1)C(=O)O [C ? dime] | R | ≥ 64 | R | R | 16 (≈ 29.3 µM) | R | ≥ 64 |  | ≤ 1 | S | ≤ 1 |  | ≤ 1 | R | 16 (≈ 29.3 µM) | ≥ 64 |  | 
4 | CO/N=C(\C(=O)N[C@@H]1C(=O)N2C(C(=O)[O-])=C(C[N+]3(C)CCCC3)CS[C@H]12)c1csc(N)n1 [C ? ime] | R | ≥ 64 | R | R | ≥ 64 | R | ≥ 64 |  | 2 (≈ 4.16 µM) | S | ≤ 1 |  | ≤ 1 | R | ≥ 64 | 16 (≈ 33.3 µM) |  | 
5 | CO[C@@]1(NC(=O)Cc2cccs2)C(=O)N2C(C(=O)O)=C(COC(N)=O)CS[C@@H]21 [C ? tin] |  |  |  | S | ≤ 4 |  |  |  |  |  |  |  |  | S |  |  |  | 
6 | CO/N=C(\C(=O)N[C@@H]1C(=O)N2C(C(=O)O)=C(COC(N)=O)CS[C@H]12)c1ccco1 [C ? xime] | R | ≥ 64 | R | R | ≥ 64 | R | ≥ 64 | R | ≥ 64 | S | 4 (≈ 9.43 µM) | R | ≥ 64 | R | ≥ 64 |  |  | 
7 | CO/N=C(\C(=O)N[C@@H]1C(=O)N2C(C(=O)O)=C(COC(C)=O)CS[C@H]12)c1csc(N)n1 [Cef ? axime] | R | ≥ 64 | R | R | ≥ 64 | R | ≥ 64 | R | 16 (≈ 35.1 µM) | S | ≤ 1 | R | 4 (≈ 8.78 µM) | R | ≥ 64 | ≥ 64 |  | 
8 | C[C@H]1COc2c(N3CCN(C)CC3)c(F)cc3c(=O)c(C(=O)O)cn1c23 [Levofloxacin] |  |  | S | R |  |  |  |  |  |  |  |  |  |  |  |  |  | 
9 | C[C@@H](O)[C@H]1C(=O)N2C(C(=O)O)=C(S[C@@H]3CN[C@H](C(=O)N(C)C)C3)[C@H](C)[C@H]12 [Meropen ? m] | R | ≥ 16 | S | S | ≤ 0.25 | I | 8 (≈ 20.9 µM) | S | ≤ 0.25 | S |  | S | ≤ 0.25 | S | ≤ 0.25 | ≤ 0.25 |  | 
10 | O=C1CN(/N=C/c2ccc([N+](=O)[O-])o2)C(=O)N1 [Nitrofuran ?] | R | 64 (≈ 269 µM) | S | S |  | R | 64 (≈ 269 µM) | S | 32 (≈ 134 µM) | S |  | S | 32 (≈ 134 µM) | S | ≤ 16 | ≤ 16 |  | 
11 | CO[C@@]1(NC(=O)C(C(=O)O)c2ccsc2)C(=O)N2[C@@H](C(=O)O)C(C)(C)S[C@@H]21 (some centres unmarked) [T ? cillin] |  |  |  | S |  |  |  |  |  |  |  |  |  |  |  |  |  | 
12 | CC(=O)N[C@@H](CCCNC(=N)N)C(=O)N[C@@H](Cc1ccccc1)C(=O)N[C@@H](Cc1ccccc1)C(=O)N[C@@H](C)C(=O)N[C@@H](C)C(=O)N[C@@H](Cc1ccccc1)C(=O)N[C@@H](CS)C(=O)N[C@@H](CC(C)C)C(=O)N[C@@H](CCCNC(=N)N)C(=O)N[C@@H](CCCNC(=N)N)C(=O)N[C@@H](CCCNC(=N)N)C(=O)N1CCC[C@H]1C(=O)N[C@@H](Cc1ccccc1)C(=O)N[C@@H](Cc1ccccc1)C(=O)N[C@@H](C)C(=O)N[C@@H](C)C(=O)N[C@@H](Cc1ccccc1)C(=O)N[C@@H](CS)C(=O)N[C@@H](CC(C)C)C(=O)N[C@@H](CCCNC(=N)N)C(=O)N[C@@H](CCCNC(=N)N)C(N)=O [TEM1.0] (Ac-RFFAAFCLRRRPFFAAFCLRR-NH2) |  |  |  |  |  |  |  |  |  |  |  |  |  |  |  |  | 1600 | 
13 | CN(C)c1cc(NC(=O)CNC(C)(C)C)c(O)c2c1C[C@H]1C[C@H]3[C@H](N(C)C)C(O)=C(C(N)=O)C(=O)[C@@]3(O)C(O)=C1C2=O [Tig ? cycline] |  |  | S |  |  |  |  |  |  |  |  |  |  |  |  |  |  | 
14 | NC[C@H]1O[C@H](O[C@H]2[C@H](O)[C@@H](O[C@H]3O[C@H](CO)[C@@H](O)[C@H](N)[C@H]3O)[C@H](N)C[C@@H]2N)[C@H](N)C[C@@H]1O [Tobramycin] |  |  |  | S | ≤ 1 | S |  | S | ≤ 1 | S | ≤ 1 |  |  | S | ≤ 1 |  |  | 
15 | Ac-RAGWFIARRPRAGWFIARR-NH2 [TEM5.0] |  |  |  |  |  |  |  |  |  |  |  |  |  |  |  |  | 1600 | 100
16 | Ac-RGIIAALGRRPRGIIAALGRR-NH2 [TEM6.0] |  |  |  |  |  |  |  |  |  |  |  |  |  |  |  |  | 1600 | >100
17 | Ac-RIVVIYTTRRPRIVVIYTTRR-NH2 [TEM7.0] |  |  |  |  |  |  |  |  |  |  |  |  |  |  |  |  | 1600 | >100
18 | Ac-RLLLTTIGRRPRLLLTTIGRR-NH2 [TEM2.0] |  |  |  |  |  |  |  |  |  |  |  |  |  |  |  |  | 800 | >100
19 | Colistin | S | ≤ 0.5 | S | S | ≤ 0.5 | S | ≤ 0.5 | S | ≤ 0.5 | S | ≤ 0.5 | S | ≤ 0.5 | S | ≤ 0.5 | ≤ 0.5 |  | 
20 | Gentamicin | R | ≥ 16 | R | S | ≤ 1 | S | ≤ 1 | S | ≤ 1 | S | ≤ 1 | R | ≥ 16 | S | ≤ 1 |  |  | 
